# Columns and labels:
# [1] = biological target: M. tuberculosis topoI (MttopoI) (Mycobacterium tuberculosis, UniProt P9WG49); assay: DNA relaxation inhibition assay; assay type: biochemical; details: assay conditions for MttopoI not stated; data not shown
# [2] = biological target: T1, Escherichia coli topoisomerase I (EctopoI) (Escherichia coli, UniProt P06612); assay: SPR; assay type: binding; details: PBS-P, pH 7.4, 1% DMSO; no DNA; average of three experimental replicates
# T1 sequence (P06612 1-865): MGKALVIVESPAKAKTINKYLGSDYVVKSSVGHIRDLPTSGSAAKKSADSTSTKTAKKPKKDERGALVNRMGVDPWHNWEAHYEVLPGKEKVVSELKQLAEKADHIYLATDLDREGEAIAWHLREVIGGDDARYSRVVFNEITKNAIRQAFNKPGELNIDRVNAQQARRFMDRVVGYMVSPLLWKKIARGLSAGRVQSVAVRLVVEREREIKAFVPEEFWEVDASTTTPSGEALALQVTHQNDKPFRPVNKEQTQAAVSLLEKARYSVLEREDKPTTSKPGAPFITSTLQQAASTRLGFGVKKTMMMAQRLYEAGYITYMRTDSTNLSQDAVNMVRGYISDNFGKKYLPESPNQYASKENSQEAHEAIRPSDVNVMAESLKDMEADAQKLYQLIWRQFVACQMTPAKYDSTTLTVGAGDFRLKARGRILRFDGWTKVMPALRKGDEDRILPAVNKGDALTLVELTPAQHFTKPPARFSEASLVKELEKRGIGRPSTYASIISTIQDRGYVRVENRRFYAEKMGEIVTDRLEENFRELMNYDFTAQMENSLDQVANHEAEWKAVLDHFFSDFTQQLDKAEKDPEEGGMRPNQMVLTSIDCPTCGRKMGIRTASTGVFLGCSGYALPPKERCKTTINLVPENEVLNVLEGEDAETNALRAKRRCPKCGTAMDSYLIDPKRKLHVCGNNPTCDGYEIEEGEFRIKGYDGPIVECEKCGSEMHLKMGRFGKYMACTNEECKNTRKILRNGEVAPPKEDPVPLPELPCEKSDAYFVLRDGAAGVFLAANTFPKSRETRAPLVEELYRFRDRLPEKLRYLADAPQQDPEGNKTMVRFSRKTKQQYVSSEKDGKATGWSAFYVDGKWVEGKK
# M. tuberculosis topoI (MttopoI), sequence (P9WG49 whole entry): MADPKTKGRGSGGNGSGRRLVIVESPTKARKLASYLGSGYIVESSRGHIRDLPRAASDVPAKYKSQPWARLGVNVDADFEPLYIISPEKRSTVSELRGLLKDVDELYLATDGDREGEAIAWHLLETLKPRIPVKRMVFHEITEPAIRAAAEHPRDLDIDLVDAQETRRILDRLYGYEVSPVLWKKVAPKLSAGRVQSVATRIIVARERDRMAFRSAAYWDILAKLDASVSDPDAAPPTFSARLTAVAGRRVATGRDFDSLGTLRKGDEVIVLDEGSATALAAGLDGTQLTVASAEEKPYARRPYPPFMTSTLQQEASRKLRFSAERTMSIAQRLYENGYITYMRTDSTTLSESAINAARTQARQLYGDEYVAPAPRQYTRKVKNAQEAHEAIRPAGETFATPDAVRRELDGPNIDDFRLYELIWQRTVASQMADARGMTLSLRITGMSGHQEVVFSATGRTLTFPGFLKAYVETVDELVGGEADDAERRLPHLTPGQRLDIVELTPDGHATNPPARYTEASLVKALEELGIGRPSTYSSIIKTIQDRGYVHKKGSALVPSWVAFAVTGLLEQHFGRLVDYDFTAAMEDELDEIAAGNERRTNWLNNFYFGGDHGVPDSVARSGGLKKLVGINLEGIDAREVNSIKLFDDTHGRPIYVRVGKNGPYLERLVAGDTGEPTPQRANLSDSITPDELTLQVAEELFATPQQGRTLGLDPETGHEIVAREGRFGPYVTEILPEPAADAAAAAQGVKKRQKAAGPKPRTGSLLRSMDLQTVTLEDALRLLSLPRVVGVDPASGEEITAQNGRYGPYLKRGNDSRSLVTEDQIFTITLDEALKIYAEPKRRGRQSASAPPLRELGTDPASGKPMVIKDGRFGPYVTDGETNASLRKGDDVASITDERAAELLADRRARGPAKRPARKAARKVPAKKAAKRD
smiles,measurement,setting,value
O=C(Nc1ccc(Sc2ccc(N=Nc3c(O)c(S(=O)(=O)O)cc4cc(S(=O)(=O)O)ccc34)cc2)cc1)c1ccc(N=Nc2c(O)ccc3c(S(=O)(=O)O)cc(S(=O)(=O)O)cc23)cc1 [NSC76027],IC50,[1],~3 µM
same,Kd,[2],0.079 ± 0.008 µM

# From publication PMC7133791 (ChemMedChem, 2020)
